# How the values were obtained:
# [1] = compound: CCOc1cc2ncc(C#N)c(Nc3ccc(OCc4ccccn4)c(Cl)c3)c2cc1NC(=O)/C=C/CN(C)C [Neratinib/HKI272]; assay: GR value, 72 h; higher = faster growth (1 = untreated, <0 = killing);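 note: breast cancer and non-malignant breast epithelial lines, nine half-log doses, viable cells counted by Hoechst and LIVE/DEAD dye imaging versus time-zero plates and DMSO controls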
# [2] = compound: CCc1cnn2c(NCc3ccc[n+]([O-])c3)cc(N3CCCC[C@H]3CCO)nc12; assay: as above
# [3] = compound: CN(C)C/C=C/C(=O)Nc1ccc(C(=O)Nc2cccc(Nc3ncc(Cl)c(-c4c[nH]c5ccccc45)n3)c2)cc1 [THZ1]; assay: as above
# [4] = compound: CC(=O)c1c(C)c2cnc(Nc3ccc(N4CCN(CCOCCOCCOCCNC(=O)COc5cccc6c5C(=O)N(C5CCC(=O)NC5=O)C6=O)CC4)cn3)nc2n(C2CCCC2)c1=O [BSJ-03-123]; assay: as above
# [5] = compound: CC(=O)c1c(C)c2cnc(Nc3ccc(N4CCNCC4)cn3)nc2n(C2CCCC2)c1=O; assay: as above
# [6] = compound: CCN1CCN(Cc2ccc(Nc3ncc(F)c(-c4cc(F)c5nc(C)n(C(C)C)c5c4)n3)nc2)CC1; assay: as above
# [7] = compound: T1, CN1CC[C@H](c2c(O)cc(O)c3c(=O)cc(-c4ccccc4Cl)oc23)[C@H](O)C1 [Flavopiridol]; assay: as above
# [8] = compound: CN(C)C/C=C/C(=O)Nc1ccc(C(=O)N2CCC[C@@H](Nc3ncc(Cl)c(-c4c[nH]c5ccccc45)n3)C2)cc1 [THZ531]; assay: as above
# [9] = compound: C=CC(=O)Nc1ccc(C(=O)Nc2[nH]nc3c2CN(C(=O)N[C@H](CN(C)C)c2ccccc2)C3(C)C)cc1 [YKL-5-124]; assay: as above
# [10] = compound: CN(C)C(=O)c1cc2cnc(Nc3ccc(N4CCNCC4)cn3)nc2n1C1CCCC1 [LEE011/Ribociclib]; assay: as above
# [11] = compound: CCN1CCN(Cc2ccc(Nc3ncc(F)c(-c4cc(F)c5nc(C)n(C(C)C)c5c4)n3)nc2)CC1; assay: increase in dead-cell fraction, 72 h; higher = more death;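 note: breast cancer cell lines in 384-well plates, stained with Hoechst plus LIVE/DEAD far red dye and imaged, cells above an LDR intensity threshold counted dead, Hoechst-negative corpses included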
# [12] = compound: T1, Flavopiridol; assay: as above
cell line,measurement,setting,value
SUM1315,GR value,[1]; 0.0003162 µM,1.07 GR
same,GR value,[1]; 0.001 µM,0.992 GR
same,GR value,[1]; 0.003162 µM,1.01 GR
same,GR value,[1]; 0.01 µM,0.908 GR
same,GR value,[1]; 0.03162 µM,0.69 GR
same,GR value,[1]; 0.1 µM,0.517 GR
same,GR value,[1]; 0.3162 µM,0.309 GR
same,GR value,[1]; 1 µM,0.162 GR
same,GR value,[1]; 3.162 µM,0.101 GR
same,GR value,[2]; 0.0001 µM,1.11 GR
same,GR value,[2]; 0.0003162 µM,0.993 GR
same,GR value,[2]; 0.001 µM,1.01 GR
same,GR value,[2]; 0.003162 µM,0.916 GR
same,GR value,[2]; 0.01 µM,0.617 GR
same,GR value,[2]; 0.03162 µM,-0.616 GR
same,GR value,[2]; 0.1 µM,-0.644 GR
same,GR value,[2]; 0.3162 µM,-0.639 GR
same,GR value,[2]; 1 µM,-0.664 GR
same,GR value,[3]; 0.0001 µM,1.24 GR
same,GR value,[3]; 0.0003162 µM,1.06 GR
same,GR value,[3]; 0.001 µM,1.06 GR
same,GR value,[3]; 0.003162 µM,0.773 GR
same,GR value,[3]; 0.01 µM,0.999 GR
same,GR value,[3]; 0.03162 µM,0.982 GR
same,GR value,[3]; 0.1 µM,0.978 GR
same,GR value,[3]; 0.3162 µM,0.391 GR
same,GR value,[3]; 1 µM,-0.906 GR
same,GR value,[4]; 0.001 µM,0.883 GR
same,GR value,[4]; 0.003162 µM,0.736 GR
same,GR value,[4]; 0.01 µM,0.79 GR
same,GR value,[4]; 0.03162 µM,0.651 GR
same,GR value,[4]; 0.1 µM,0.822 GR
same,GR value,[4]; 0.3162 µM,0.641 GR
same,GR value,[4]; 1 µM,0.497 GR
same,GR value,[4]; 3.162 µM,0.572 GR
same,GR value,[4]; 10 µM,0.21 GR
same,GR value,[5]; 0.0003162 µM,1.07 GR
same,GR value,[5]; 0.001 µM,0.996 GR
same,GR value,[5]; 0.003162 µM,0.938 GR
same,GR value,[5]; 0.01 µM,0.855 GR
same,GR value,[5]; 0.03162 µM,0.593 GR
same,GR value,[5]; 0.1 µM,0.522 GR
same,GR value,[5]; 0.3162 µM,0.365 GR
same,GR value,[5]; 1 µM,0.417 GR
same,GR value,[5]; 3.162 µM,0.293 GR
same,GR value,[6]; 0.001 µM,1.08 GR
same,GR value,[6]; 0.003162 µM,0.8 GR
same,GR value,[6]; 0.01 µM,0.704 GR
same,GR value,[6]; 0.03162 µM,0.436 GR
same,GR value,[6]; 0.1 µM,0.402 GR
same,GR value,[6]; 0.3162 µM,0.259 GR
same,GR value,[6]; 1 µM,0.177 GR
same,GR value,[6]; 3.162 µM,0.109 GR
same,GR value,[6]; 10 µM,-0.164 GR
same,GR value,[7]; 0.0001 µM,1.09 GR
same,GR value,[7]; 0.0003162 µM,0.97 GR
same,GR value,[7]; 0.001 µM,0.741 GR
same,GR value,[7]; 0.003162 µM,0.795 GR
same,GR value,[7]; 0.01 µM,0.876 GR
same,GR value,[7]; 0.03162 µM,0.76 GR
same,GR value,[7]; 0.1 µM,0.647 GR
same,GR value,[7]; 0.3162 µM,-0.451 GR
same,GR value,[7]; 1 µM,-0.887 GR
same,GR value,[8]; 0.0001 µM,0.9 GR
same,GR value,[8]; 0.0003162 µM,1.1 GR
same,GR value,[8]; 0.001 µM,0.822 GR
same,GR value,[8]; 0.003162 µM,0.987 GR
same,GR value,[8]; 0.01 µM,1.1 GR
same,GR value,[8]; 0.03162 µM,1.14 GR
same,GR value,[8]; 0.1 µM,1.04 GR
same,GR value,[8]; 0.3162 µM,0.685 GR
same,GR value,[8]; 1 µM,-0.604 GR
same,GR value,[9]; 0.001 µM,0.771 GR
same,GR value,[9]; 0.003162 µM,0.514 GR
same,GR value,[9]; 0.01 µM,0.439 GR
same,GR value,[9]; 0.03162 µM,0.478 GR
same,GR value,[9]; 0.1 µM,0.393 GR
same,GR value,[9]; 0.3162 µM,0.264 GR
same,GR value,[9]; 1 µM,0.133 GR
same,GR value,[9]; 3.162 µM,0.0326 GR
same,GR value,[9]; 10 µM,-0.443 GR
same,GR value,[10]; 0.001 µM,0.841 GR
same,GR value,[10]; 0.003162 µM,0.69 GR
same,GR value,[10]; 0.01 µM,0.764 GR
same,GR value,[10]; 0.03162 µM,0.763 GR
same,GR value,[10]; 0.1 µM,0.671 GR
same,GR value,[10]; 0.3162 µM,0.57 GR
same,GR value,[10]; 1 µM,0.582 GR
same,GR value,[10]; 3.162 µM,0.527 GR
same,GR value,[10]; 10 µM,0.445 GR
same,increase in dead-cell fraction,[11]; 0.001 µM,0.0105
same,increase in dead-cell fraction,[11]; 0.003162 µM,0.0024
same,increase in dead-cell fraction,[11]; 0.01 µM,-0.0018
same,increase in dead-cell fraction,[11]; 0.03162 µM,0.0186
same,increase in dead-cell fraction,[11]; 0.1 µM,0.0167
same,increase in dead-cell fraction,[11]; 0.3162 µM,0.025
same,increase in dead-cell fraction,[11]; 1 µM,0.0225
same,increase in dead-cell fraction,[11]; 3.162 µM,0.0197
same,increase in dead-cell fraction,[11]; 10 µM,0.132
same,increase in dead-cell fraction,[12]; 0.0001 µM,0.0039
same,increase in dead-cell fraction,[12]; 0.0003162 µM,-0.0083
same,increase in dead-cell fraction,[12]; 0.001 µM,0.0048
same,increase in dead-cell fraction,[12]; 0.003162 µM,0.0087
same,increase in dead-cell fraction,[12]; 0.01 µM,0.0083
same,increase in dead-cell fraction,[12]; 0.03162 µM,0.0248
same,increase in dead-cell fraction,[12]; 0.1 µM,-0.0084
same,increase in dead-cell fraction,[12]; 0.3162 µM,0.383
same,increase in dead-cell fraction,[12]; 1 µM,0.596
